Test results as given in article PMC8056388 (ACS Chemical Biology, 2021).

Key:
WT PqsE [1] = target: T1, WT PqsE (Pseudomonas aeruginosa, UniProt P20581); experiment: Fluorescence polarization binding of BB562; conditions: purified WT PqsE
WT PqsE [2] = target: T1, WT PqsE; experiment: biochemical; assay type: binding
PqsE S160A = PqsE S160A (Pseudomonas aeruginosa, UniProt P20581, S160A); assay type: binding
PqsE S285A [3] = target: T2, PqsE S285A (Pseudomonas aeruginosa, UniProt P20581, S285A); assay type: binding
PqsE S285A [4] = target: T2, PqsE S285A; assay type: biochemical
P. aeruginosa PA14 = assay type: cell-based; conditions: P. aeruginosa PA14 cultures, 100 μM compound, 17 h
PqsE-RhlR interaction = PqsE-RhlR interaction (Pseudomonas aeruginosa, UniProt P20581); experiment: PqsE-RhlR interaction pull-down assay; assay type: binding; conditions: PqsE:compound 1:1 and 1:2 molar ratios, SDS-PAGE
hcnA = experiment: qRT-PCR of hcnA transcript; conditions: P. aeruginosa PA14, 100 μM compound
phzH = experiment: qRT-PCR of phzH transcript; conditions: P. aeruginosa PA14, 100 μM compound
P. aeruginosa PAO1 = conditions: cited from earlier work

O=C(NCCCn1cc(-c2ccc(NC(=O)c3cccc4cn[nH]c34)cc2)nn1)c1ccc2c(c1)C(=O)OC21c2ccc(O)cc2Oc2cc(O)ccc21 [BB562]
apparent binding constant (Kapp), in words (WT PqsE [1]): midnanomolar range

O=C(Nc1cccc(-c2ccn[nH]2)c1)c1cccc2cn[nH]c12 [BB391]
EC50 (WT PqsE [2]): 255 nM | ΔTm PqsE S160A (PqsE S160A): 5.0 °C | ΔTm PqsE S285A (PqsE S285A [3]): lost the ability to shift the Tm | projected IC50 for PqsE S285A relative to WT PqsE (PqsE S285A [4]): at least a log unit higher | pyocyanin production (P. aeruginosa PA14): neither molecule caused any decrease in pyocyanin production | suppression of the interaction between PqsE and RhlR (PqsE-RhlR interaction): neither BB391 nor BB393 suppressed the interaction | transcription of hcnA (hcnA): neither molecule drove altered transcription | transcription of phzH (phzH): neither molecule drove altered transcription

O=C(O)c1ccccc1-c1cccnc1 [C1, 2-(pyridin-3′-yl) benzoic acid, reference compound]
ΔTm PqsE S160A (PqsE S160A): 12.1 °C | ΔTm PqsE S285A (PqsE S285A [3]): 8.5 °C | pyocyanin production (P. aeruginosa PAO1): did not affect pyocyanin production
